Each structure is given as a SMILES string. Some results are limits rather than exact numbers.

Common to all, as to assay type: ADME, cell-based
In data set [1] the test system is CCRF S-180. As to the kind of experiment: Cellular uptake in mouse S180 cells after 60 mins. Particulars: ccrf s-180, 1 h; call rule not given here.
Data set [2] deals with CCRF S-180. As to the kind of experiment: Cellular uptake in mouse S180 cells relative to [18F]FDG.
Data set [3] has as its system CCRF S-180. As to the kind of experiment: Cellular uptake in mouse S180 cells after 30 mins. Particulars: ccrf s-180, 0.5 h.

On to `N[C@@H](Cc1ccc(OCC[18F])cc1)C(=O)O` [FLORETYROSINE F18], for which the Drug uptake in data set [1] was 9%; in data set [2], less than 7%.

Take `O=C[C@H]([18F])[C@@H](O)[C@H](O)[C@H](O)CO`: the Drug uptake entry in data set [3] is on record as “Active”; in data set [1], 9%.
